From doi:10.1101/2022.06.11.495772v2 (biorxiv, 2022)
Square brackets hold non-standard residues; d marks the D form. Peptide text beside a SMILES is read from it. NMeY = CN[C@@H](Cc1ccc(O)cc1)C(=O)O; NMeT = CN[C@H](C(=O)O)[C@@H](C)O; NMeL = CN[C@@H](CC(C)C)C(=O)O

Tests used:
HsMetAP2 = HsMetAP2 (Homo sapiens, UniProt P50579); assay: biochemical
HsMetAP1 = HsMetAP1 (Homo sapiens, UniProt P53582); assay: biochemical
EcMetAP [1] = target: T1, EcMetAP (Escherichia coli, UniProt P0AE18); assay: biochemical
T1 sequence (P0AE18 2-264): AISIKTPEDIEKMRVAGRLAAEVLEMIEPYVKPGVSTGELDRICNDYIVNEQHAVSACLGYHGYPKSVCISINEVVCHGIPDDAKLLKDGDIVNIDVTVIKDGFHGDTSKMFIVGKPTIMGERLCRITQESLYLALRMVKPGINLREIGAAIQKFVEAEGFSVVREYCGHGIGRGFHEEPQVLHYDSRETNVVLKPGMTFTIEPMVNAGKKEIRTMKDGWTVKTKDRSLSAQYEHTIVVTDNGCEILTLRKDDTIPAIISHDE

EcMetAP [2] = target: T1, EcMetAP; assay: coupled fluorogenic Met-Gly-Pro-AMC / DPPIV assay; type: biochemical

Chain of HsMetAP2 (P50579 2-478): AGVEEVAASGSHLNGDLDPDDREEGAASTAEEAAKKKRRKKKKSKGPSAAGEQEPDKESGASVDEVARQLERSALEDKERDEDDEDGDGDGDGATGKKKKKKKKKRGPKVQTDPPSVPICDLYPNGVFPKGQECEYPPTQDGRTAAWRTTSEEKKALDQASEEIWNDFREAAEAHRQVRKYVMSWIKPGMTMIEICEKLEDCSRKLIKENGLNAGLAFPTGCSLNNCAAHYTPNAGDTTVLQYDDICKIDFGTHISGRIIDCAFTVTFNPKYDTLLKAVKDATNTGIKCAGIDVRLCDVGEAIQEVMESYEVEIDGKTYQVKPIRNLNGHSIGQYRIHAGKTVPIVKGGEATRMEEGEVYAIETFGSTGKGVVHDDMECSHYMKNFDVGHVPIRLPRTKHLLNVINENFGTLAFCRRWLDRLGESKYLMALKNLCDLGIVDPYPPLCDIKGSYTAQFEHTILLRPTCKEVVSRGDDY

Row | SMILES | IC50 (HsMetAP2) [µM] | IC50 (HsMetAP1) [µM] | IC50 (EcMetAP [1]) [µM] | IC50 (EcMetAP [2]) [µM]
1 | CN[C@@H](Cc1ccc(O)cc1)C(=O)N(C)[C@H](C(=O)N(C)[C@@H](CC(C)C)C(=O)OC)[C@@H](C)OC [NMe-Monomer] (H-[NMeY]-[NMeT](Me)-[NMeL]-OMe) | > 2000 | > 2000 | – | –
2 | CO[C@@H]1[C@H](OC(=O)NC(=O)CCl)CC[C@]2(CO2)[C@H]1[C@@]1(C)O[C@@H]1CC=C(C)C [TNP-470] | 0.69 ± 0.05 | > 2000 | > 2000 | –
3 | CCCCCCCCCCCCCC(=O)O[C@H]1CC[C@H](NC(=O)[C@H](OC)[C@H](O)[C@@H](O)[C@H](O)/C=C/C(C)C)C(=O)N(C)C1 [bengamide B] | – | – | > 2000 | –
4 | CC(C)CC1C(=O)OC(C)C(N(C)C(=O)C(Cc2ccc(O)cc2)N(C)C)C(=O)N(C)C(CC(C)C)C(=O)OC(C)C(N(C)C(=O)C(Cc2ccc(O)cc2)N(C)C)C(=O)N1C (stereo not shown) [metapeptin A] | > 2000 | > 2000 | > 2000 | –
5 | CNC(Cc1ccc(O)cc1)C(=O)N(C)C1C(=O)N(C)C(CC(C)C)C(=O)OC(C)C(N(C)C(=O)C(Cc2ccc(O)cc2)N(C)C)C(=O)N(C)C(CC(C)C)C(=O)OC1C (stereo not shown) [metapeptin B] | > 2000 | 49.7 ± 3.98 | 0.47 ± 0.29 | ~0.5
